Like-named read-outs stand apart in the source and are kept apart here.
Key:
[1] = test system: Mycobacterium immunogenum (ATCC 700505); assay: MBC test, transfer from MIC plates to fresh media; type: cell-based; conditions: M. immunogenum, no survivors after 2 days in fresh media
Experimental: (§1) Bacterial strains tested included Mycobacterium chelonae (ATCC 14472) and Mycobacterium immunogenum (ATCC 700505). Mycobacterial cultures were grown overnight at 30° C. (M. immunogenum) or 37° C. (M. chelonae), in a rotary shaking bath in Middlebrook […] with Middlebrook enrichment. A 1:20 dilution of the overnight culture was made into the appropriate test media and inoculated to give a final concentration of 10^6 to 10^7 CFU/ml.
(§2) MBC tests were conducted by transferring samples from the MIC test samples into fresh media and observing for growth of the culture. Growth was determined as above. In this test using Biomek 2000 Workstation, 10 μl samples taken from the 96-well MIC plates were placed in […] of fresh growth media to determine the number of surviving organisms for the same gradient of biocide concentrations. These plates were incubated and read in the same fashion as the MIC plates.

[2] = test system: Mycobacterium chelonae (ATCC 14472); assay: MBC test, transfer from MIC plates to fresh media; type: cell-based; conditions: M. chelonae, no survivors after 2 days in fresh media
Experimental: as §1, §2

[3] = Stability in pH 9 buffer solution at 70° C. (HPLC)
Experimental: pH 9 buffer containing 0.069 M boric acid, 0.017 M citric acid, 0.066 M sodium phosphate was prepared in distilled water. Biocide was dosed into the pH 9 buffer solution and stored at 70° C. in a heat block. The samples were examined for active ingredient concentration at the time points after 5 hours, and 1, 3, 7, 23, 30, 35 and 56 days. Initial biocide doses were 166 ppm MI, 199 ppm BIT and 150 ppm BNPD.
The samples were evaluated for active ingredient concentration via High Pressure Liquid Chromatography. Samples were taken from the heating blocks and allowed to cool to room temperature for 30 minutes. The samples were then diluted 1:20 in deionized water by adding 9.5 ml of deionized water to 0.5 grams of the samples in a 25 ml glass sample vial. The samples were mixed for 15 seconds and transferred to HPLC sample vials for analysis.

Pseudomonas diminuta #99 = assay: MIC at pH 7.1 or pH 9.0, half strength TSB; type: cell-based; conditions: Brevundimonas diminuta, 72 h, three days, read-out: Minimum Inhibitory Concentration
Experimental: (§3) Minimum inhibitory concentration (MIC) studies were conducted to determine the lowest level of biocide required to inhibit growth of bacteria and fungi. Tests were conducted in 96-well microtiter plates. Biocides were added to growth media in the plates and serially diluted to obtain a range of concentrations. Tests were conducted in one-half strength trypticase soy broth (TSB; adjusted to pH 7.1 or pH 9.0). Bacteria and fungi were added to samples at 10^6 colony forming units per ml and incubated at 30° C. for three days. MIC values were determined visually on a growth no-growth basis.

Alcaligenes faecalis #93 = assay: MIC at pH 7.1 or pH 9.0, half strength TSB; type: cell-based; conditions: Alcaligenes faecalis, 72 h, three days, read-out: Minimum Inhibitory Concentration
Experimental: as §3

Aspergillus niger #128 = assay: MIC at pH 7.1 or pH 9.0, half strength TSB; type: cell-based; conditions: Aspergillus niger, 72 h, three days, read-out: Minimum Inhibitory Concentration
Experimental: as §3

Streptomyces sp. #130 = assay: MIC at pH 7.1 or pH 9.0, half strength TSB; type: cell-based; conditions: Streptomyces, 72 h, three days, read-out: Minimum Inhibitory Concentration
Experimental: as §3

Rhodotorula rubra #156 = assay: MIC at pH 7.1 or pH 9.0, half strength TSB; type: cell-based; conditions: Rhodotorula, 72 h, three days, read-out: Minimum Inhibitory Concentration
Experimental: as §3

[4] = test system: Alcaligenes xylosoxydans #95; assay: MIC at pH 7.1 or pH 9.0, half strength TSB; type: cell-based; conditions: Achromobacter xylosoxidans, 72 h, three days, read-out: Minimum Inhibitory Concentration
Experimental: as §3

[5] = test system: Pseudomonas aeruginosa #13; assay: MIC at pH 7.1 or pH 9.0, half strength TSB; type: cell-based; conditions: Pseudomonas aeruginosa, 72 h, three days, read-out: Minimum Inhibitory Concentration
Experimental: as §3

Aspergillus sp. #120 = assay: MIC at pH 7.1 or pH 9.0, half strength TSB; type: cell-based; conditions: Aspergillus, 72 h, three days, read-out: Minimum Inhibitory Concentration
Experimental: as §3

[6] = test system: Pseudomonas pseudoalcaligenes #15; assay: MIC at pH 7.1 or pH 9.0, half strength TSB; type: cell-based; conditions: Ectopseudomonas oleovorans, 72 h, three days, read-out: Minimum Inhibitory Concentration
Experimental: as §3

[7] = Stability in buffered water at various pH and temperatures (HPLC); type: physicochemical
Experimental: Biocides were added to buffer solutions and stability was tested at 22° and 50° C. using HPLC to measure biocide concentration at 0 time, 21 days, 43 days, and 88-90 days. Biocide stability was determined in the following buffer solutions: pH2, 0.01M HCl; pH6, 0.1M KH2PO4; pH8, 0.025M borate; pH10, 0.025M borate; pH12, 0.05M Na2HPO4. Biocide concentrations tested were 100 ppm MI, 200 ppm BIT, 44 ppm CMI.

Cn1sccc1=O [MI, 2-methyl-4-isothiazolin-3-one]
95%: Percent Remaining after: 23 day ([3]; 23 day) | Percent Remaining at: pH 8 ([7]; 22° C., day 43) | Percent Remaining at: pH 8 ([7]; 50° C., day 43)
96%: Percent Remaining after: 5 hr ([3]; 5 hr) | Percent Remaining after: 1 day ([3]; 1 day) | Percent Remaining after: 3 day ([3]; 3 day)
25 µg/mL: MIC (Rhodotorula rubra #156; pH 7.1, 30° C.) | MIC (Rhodotorula rubra #156; pH 9.0, 30° C.) | MIC ([4]; pH 9.0, 30° C.) | MIC ([6]; pH 7.1, 30° C.) | MIC ([6]; pH 9.0, 30° C.)
no loss: loss of active ingredient ([3]; day 56)
6.3 µg/mL: MIC (Pseudomonas diminuta #99; pH 9.0, 30° C.) | MIC (Alcaligenes faecalis #93; pH 9.0, 30° C.) | MIC ([5]; pH 9.0, 30° C.)
100 µg/mL: MIC (Aspergillus niger #128; pH 7.1, 30° C.) | MIC (Aspergillus niger #128; pH 9.0, 30° C.)
76%: Percent Remaining at: pH 12 ([7]; 50° C., day 90)
93%: Percent Remaining after: 7 day ([3]; 7 day) | Percent Remaining after: 35 day ([3]; 35 day) | Percent Remaining at: pH 12 ([7]; 22° C., day 43) | Percent Remaining at: pH 6 ([7]; 50° C., day 43) | Percent Remaining at: pH 10 ([7]; 50° C., day 43)
90%: Percent Remaining at: pH 12 ([7]; 50° C., day 21)
104%: Percent Remaining at: pH 2 ([7]; 22° C., day 21)
3.2 µg/mL: MIC (Alcaligenes faecalis #93; pH 7.1, 30° C.) | MIC (Streptomyces sp. #130; pH 7.1, 30° C.) | MIC (Streptomyces sp. #130; pH 9.0, 30° C.)
102%: Percent Remaining after: 56 day ([3]; 56 day)
84 ppm active: Minimum Biocidal Concentration [1]
40 ppm active: Minimum Biocidal Concentration [2]
50 µg/mL: MIC (Aspergillus sp. #120; pH 7.1, 30° C.) | MIC (Aspergillus sp. #120; pH 9.0, 30° C.)
97%: Percent Remaining at: pH 2 ([7]; 50° C., day 43)
94%: Percent Remaining at: pH 6 ([7]; 22° C., day 43)
101%: Percent Remaining after: 30 day ([3]; 30 day)
12.5 µg/mL: MIC (Pseudomonas diminuta #99; pH 7.1, 30° C.) | MIC ([4]; pH 7.1, 30° C.) | MIC ([5]; pH 7.1, 30° C.)
98%: Percent Remaining at: pH 12 ([7]; 22° C., day 21) | Percent Remaining at: pH 2 ([7]; 22° C., day 43) | Percent Remaining at: pH 6 ([7]; 50° C., day 21) | Percent Remaining at: pH 10 ([7]; 50° C., day 21)
89%: Percent Remaining at: pH 10 ([7]; 22° C., day 43)
78%: Percent Remaining at: pH 12 ([7]; 50° C., day 43)
100%: Percent Remaining after: 0 ([3]; time 0) | Percent Remaining at: pH 2 ([7]; 22° C., day 0) | Percent Remaining at: pH 6 ([7]; 22° C., day 0) | Percent Remaining at: pH 8 ([7]; 22° C., day 0) | Percent Remaining at: pH 10 ([7]; 22° C., day 0) | Percent Remaining at: pH 12 ([7]; 22° C., day 0) | Percent Remaining at: pH 6 ([7]; 22° C., day 21) | Percent Remaining at: pH 8 ([7]; 22° C., day 21) | Percent Remaining at: pH 10 ([7]; 22° C., day 21) | Percent Remaining at: pH 2 ([7]; 22° C., day 88) | Percent Remaining at: pH 6 ([7]; 22° C., day 88) | Percent Remaining at: pH 8 ([7]; 22° C., day 88) | Percent Remaining at: pH 10 ([7]; 22° C., day 88) | Percent Remaining at: pH 12 ([7]; 22° C., day 88) | Percent Remaining at: pH 2 ([7]; 50° C., day 0) | Percent Remaining at: pH 6 ([7]; 50° C., day 0) | Percent Remaining at: pH 8 ([7]; 50° C., day 0) | Percent Remaining at: pH 10 ([7]; 50° C., day 0) | Percent Remaining at: pH 12 ([7]; 50° C., day 0) | Percent Remaining at: pH 2 ([7]; 50° C., day 21) | Percent Remaining at: pH 8 ([7]; 50° C., day 21) | Percent Remaining at: pH 2 ([7]; 50° C., day 90) | Percent Remaining at: pH 6 ([7]; 50° C., day 90) | Percent Remaining at: pH 8 ([7]; 50° C., day 90) | Percent Remaining at: pH 10 ([7]; 50° C., day 90)

— patent publication US7699995B2, “Water treatment method” (priority 2006, dated 2010)
